Test results published in the kinase profiling compilation of Christmann-Franck et al. (2016).

Tests used:
Experiment in all cases: radiometric filter-binding kinase assay
STK33 (human) = STK33 (human) (UniProt Q9BYT3)
TTBK2 (human) = TTBK2 (human) (UniProt Q6IQ55)
TESK1 (human) = TESK1 (human) (UniProt Q15569)
PDGFRA (human) = PDGFRA (human) (UniProt P16234)
TLK1 (human) = TLK1 (human) (UniProt Q9UKI8)
WNK1 (human) = WNK1 (human) (UniProt Q9H4A3)
[1] = molecular target: PRKAA1 PRKAB2 PRKAG1 (human) (UniProt O43741+Q13131+P54619)
IRAK1 (human) = IRAK1 (human) (UniProt P51617)
SIK2 (human) = SIK2 (human) (UniProt Q9H0K1)
CDK9 CCNT1 (human) = CDK9 CCNT1 (human) (UniProt P50750+O60563)
CDK9 CCNT1 (human), sequence (O60563 whole entry, looked up): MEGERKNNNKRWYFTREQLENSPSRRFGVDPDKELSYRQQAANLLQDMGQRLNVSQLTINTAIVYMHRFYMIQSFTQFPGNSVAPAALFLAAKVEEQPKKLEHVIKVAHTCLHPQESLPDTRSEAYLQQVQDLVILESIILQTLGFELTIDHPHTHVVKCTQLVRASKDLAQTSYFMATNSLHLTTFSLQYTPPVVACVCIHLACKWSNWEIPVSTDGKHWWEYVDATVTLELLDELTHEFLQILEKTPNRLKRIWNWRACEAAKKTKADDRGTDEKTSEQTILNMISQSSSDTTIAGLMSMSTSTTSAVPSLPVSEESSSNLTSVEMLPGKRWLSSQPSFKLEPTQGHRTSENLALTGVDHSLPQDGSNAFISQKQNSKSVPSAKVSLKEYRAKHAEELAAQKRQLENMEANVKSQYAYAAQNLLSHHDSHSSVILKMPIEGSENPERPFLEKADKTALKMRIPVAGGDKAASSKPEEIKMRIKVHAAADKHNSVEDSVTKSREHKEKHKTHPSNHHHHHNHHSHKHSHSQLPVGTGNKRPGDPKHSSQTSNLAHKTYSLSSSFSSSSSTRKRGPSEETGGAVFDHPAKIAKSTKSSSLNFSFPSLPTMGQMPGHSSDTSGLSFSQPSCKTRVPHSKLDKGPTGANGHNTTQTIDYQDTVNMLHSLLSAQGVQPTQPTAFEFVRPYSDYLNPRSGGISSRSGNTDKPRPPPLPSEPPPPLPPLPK
CDK9 CCNT1 (human), sequence (P50750 whole entry, looked up): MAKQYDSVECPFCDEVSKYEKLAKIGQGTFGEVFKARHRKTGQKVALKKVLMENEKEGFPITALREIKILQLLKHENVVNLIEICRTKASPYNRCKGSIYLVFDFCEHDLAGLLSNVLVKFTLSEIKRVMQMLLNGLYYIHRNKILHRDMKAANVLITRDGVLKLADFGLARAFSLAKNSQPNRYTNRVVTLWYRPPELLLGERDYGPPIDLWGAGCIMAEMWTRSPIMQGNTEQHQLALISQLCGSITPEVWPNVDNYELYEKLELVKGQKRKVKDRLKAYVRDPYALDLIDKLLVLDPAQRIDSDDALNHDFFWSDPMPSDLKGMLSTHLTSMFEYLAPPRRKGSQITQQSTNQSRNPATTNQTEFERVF

ULK2 (human) = ULK2 (human) (UniProt Q8IYT8)
ULK2 (human), sequence (Q8IYT8 whole entry, looked up): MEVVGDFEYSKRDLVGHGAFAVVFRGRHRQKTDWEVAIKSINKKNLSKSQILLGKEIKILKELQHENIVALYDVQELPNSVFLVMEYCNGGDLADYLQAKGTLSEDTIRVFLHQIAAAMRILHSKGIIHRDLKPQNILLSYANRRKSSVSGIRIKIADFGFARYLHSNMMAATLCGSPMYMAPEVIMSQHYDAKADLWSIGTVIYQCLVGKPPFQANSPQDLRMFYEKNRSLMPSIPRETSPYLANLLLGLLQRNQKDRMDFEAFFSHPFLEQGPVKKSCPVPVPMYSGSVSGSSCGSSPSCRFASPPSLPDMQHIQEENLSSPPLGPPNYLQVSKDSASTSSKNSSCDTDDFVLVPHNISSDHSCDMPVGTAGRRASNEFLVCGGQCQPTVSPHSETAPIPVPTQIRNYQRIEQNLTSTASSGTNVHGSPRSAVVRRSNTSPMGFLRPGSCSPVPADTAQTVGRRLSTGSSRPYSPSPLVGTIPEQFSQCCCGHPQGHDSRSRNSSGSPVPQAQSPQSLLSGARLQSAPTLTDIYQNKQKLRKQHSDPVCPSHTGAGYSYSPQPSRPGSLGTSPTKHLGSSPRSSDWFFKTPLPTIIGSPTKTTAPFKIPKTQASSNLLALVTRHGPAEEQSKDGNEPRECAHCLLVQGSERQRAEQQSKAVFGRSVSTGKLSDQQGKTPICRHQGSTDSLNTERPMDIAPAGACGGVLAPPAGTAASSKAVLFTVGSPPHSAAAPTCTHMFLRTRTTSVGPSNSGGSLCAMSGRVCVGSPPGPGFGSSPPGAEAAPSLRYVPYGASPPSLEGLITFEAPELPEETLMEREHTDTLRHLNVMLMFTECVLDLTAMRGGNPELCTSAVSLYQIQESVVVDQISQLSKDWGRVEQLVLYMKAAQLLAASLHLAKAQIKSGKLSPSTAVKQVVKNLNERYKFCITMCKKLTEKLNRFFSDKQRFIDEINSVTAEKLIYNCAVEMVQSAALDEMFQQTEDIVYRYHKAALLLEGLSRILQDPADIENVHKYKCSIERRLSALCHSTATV

SIK3 (human) = SIK3 (human) (UniProt Q9Y2K2)
TEK (human) = TEK (human) (UniProt Q02763)
EIF2AK3 (human) = EIF2AK3 (human) (UniProt Q9NZJ5)
MAPK7 (human) = MAPK7 (human) (UniProt Q13164)
[2] = tested on: TGFBR1 (human), P36897 [T204D]
STK24 (human) = STK24 (human) (UniProt Q9Y6E0)
STK24 (human), sequence (Q9Y6E0 whole entry, looked up): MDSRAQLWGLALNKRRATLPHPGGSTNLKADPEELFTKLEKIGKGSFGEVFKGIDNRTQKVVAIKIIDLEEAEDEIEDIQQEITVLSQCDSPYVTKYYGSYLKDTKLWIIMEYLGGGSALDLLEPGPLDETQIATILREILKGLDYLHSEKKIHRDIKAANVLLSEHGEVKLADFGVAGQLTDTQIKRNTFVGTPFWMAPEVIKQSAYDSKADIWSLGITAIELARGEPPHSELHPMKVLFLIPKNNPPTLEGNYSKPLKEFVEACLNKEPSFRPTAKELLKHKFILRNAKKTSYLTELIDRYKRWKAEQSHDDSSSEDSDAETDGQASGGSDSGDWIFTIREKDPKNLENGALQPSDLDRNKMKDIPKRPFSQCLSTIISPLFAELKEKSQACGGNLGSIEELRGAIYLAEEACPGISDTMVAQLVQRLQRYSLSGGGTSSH

ULK1 (human) = ULK1 (human) (UniProt O75385)
ABL1 (human) = ABL1 (human) (UniProt P00519)
MAP2K6 (human) = MAP2K6 (human) (UniProt P52564)
MAP4K5 (human) = MAP4K5 (human) (UniProt Q9Y4K4)
ZAP70 (human) = ZAP70 (human) (UniProt P43403)
NUAK1 (human) = NUAK1 (human) (UniProt O60285)
DDR2 (human) = DDR2 (human) (UniProt Q16832)
TTBK1 (human) = TTBK1 (human) (UniProt Q5TCY1)
TTBK1 (human), sequence (Q5TCY1 whole entry, looked up): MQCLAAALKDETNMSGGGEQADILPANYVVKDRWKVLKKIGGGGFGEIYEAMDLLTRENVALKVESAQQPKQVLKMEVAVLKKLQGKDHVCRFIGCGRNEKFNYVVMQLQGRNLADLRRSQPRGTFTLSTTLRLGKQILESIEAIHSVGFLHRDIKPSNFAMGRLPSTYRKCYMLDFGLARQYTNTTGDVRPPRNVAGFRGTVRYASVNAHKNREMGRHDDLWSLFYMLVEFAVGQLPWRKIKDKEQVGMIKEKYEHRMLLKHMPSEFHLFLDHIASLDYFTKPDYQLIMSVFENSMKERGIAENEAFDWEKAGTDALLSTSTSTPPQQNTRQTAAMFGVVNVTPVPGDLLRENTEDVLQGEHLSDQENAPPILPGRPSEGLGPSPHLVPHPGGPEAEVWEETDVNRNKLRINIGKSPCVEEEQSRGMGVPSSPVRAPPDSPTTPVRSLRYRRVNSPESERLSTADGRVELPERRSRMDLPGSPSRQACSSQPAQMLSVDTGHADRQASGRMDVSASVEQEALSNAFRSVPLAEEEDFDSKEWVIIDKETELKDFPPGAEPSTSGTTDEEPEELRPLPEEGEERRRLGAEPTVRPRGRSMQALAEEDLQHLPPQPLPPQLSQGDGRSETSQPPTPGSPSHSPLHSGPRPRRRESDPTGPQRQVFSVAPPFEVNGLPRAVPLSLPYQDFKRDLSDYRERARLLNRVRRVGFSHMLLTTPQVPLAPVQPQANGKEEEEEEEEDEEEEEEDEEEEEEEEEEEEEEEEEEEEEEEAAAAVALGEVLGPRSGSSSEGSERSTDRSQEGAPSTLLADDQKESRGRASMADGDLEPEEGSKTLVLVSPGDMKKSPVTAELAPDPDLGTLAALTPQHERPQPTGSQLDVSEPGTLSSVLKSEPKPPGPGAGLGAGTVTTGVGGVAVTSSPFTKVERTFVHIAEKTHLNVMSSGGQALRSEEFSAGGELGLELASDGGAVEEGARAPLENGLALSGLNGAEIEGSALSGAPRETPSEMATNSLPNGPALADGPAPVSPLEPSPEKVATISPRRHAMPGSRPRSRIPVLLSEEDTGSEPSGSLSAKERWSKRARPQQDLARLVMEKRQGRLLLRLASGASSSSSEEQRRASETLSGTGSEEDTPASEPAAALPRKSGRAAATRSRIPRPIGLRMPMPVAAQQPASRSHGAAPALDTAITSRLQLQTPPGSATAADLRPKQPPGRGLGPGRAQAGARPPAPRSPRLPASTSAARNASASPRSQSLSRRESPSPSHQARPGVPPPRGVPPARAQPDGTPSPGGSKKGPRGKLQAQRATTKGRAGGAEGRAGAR

MAP4K3 (human) = MAP4K3 (human) (UniProt Q8IVH8)
STK16 (human) = STK16 (human) (UniProt O75716)
STK16 (human), sequence (O75716 whole entry, looked up): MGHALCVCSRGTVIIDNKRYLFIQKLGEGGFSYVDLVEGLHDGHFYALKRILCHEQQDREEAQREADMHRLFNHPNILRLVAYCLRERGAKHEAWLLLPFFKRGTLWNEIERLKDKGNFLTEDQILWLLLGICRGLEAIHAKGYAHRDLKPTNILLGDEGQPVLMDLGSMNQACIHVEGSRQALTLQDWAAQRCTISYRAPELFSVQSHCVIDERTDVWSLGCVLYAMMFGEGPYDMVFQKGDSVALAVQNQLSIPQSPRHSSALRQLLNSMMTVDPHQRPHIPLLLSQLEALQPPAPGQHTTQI

TSSK1B (human) = TSSK1B (human) (UniProt Q9BXA7)
[3] = tested on: OXSR1 (human), O95747 [T185E]
PTK6 (human) = PTK6 (human) (UniProt Q13882)
CSNK1G2 (human) = CSNK1G2 (human) (UniProt P78368)

TLK1 (human), sequence (Q9UKI8 whole entry, looked up): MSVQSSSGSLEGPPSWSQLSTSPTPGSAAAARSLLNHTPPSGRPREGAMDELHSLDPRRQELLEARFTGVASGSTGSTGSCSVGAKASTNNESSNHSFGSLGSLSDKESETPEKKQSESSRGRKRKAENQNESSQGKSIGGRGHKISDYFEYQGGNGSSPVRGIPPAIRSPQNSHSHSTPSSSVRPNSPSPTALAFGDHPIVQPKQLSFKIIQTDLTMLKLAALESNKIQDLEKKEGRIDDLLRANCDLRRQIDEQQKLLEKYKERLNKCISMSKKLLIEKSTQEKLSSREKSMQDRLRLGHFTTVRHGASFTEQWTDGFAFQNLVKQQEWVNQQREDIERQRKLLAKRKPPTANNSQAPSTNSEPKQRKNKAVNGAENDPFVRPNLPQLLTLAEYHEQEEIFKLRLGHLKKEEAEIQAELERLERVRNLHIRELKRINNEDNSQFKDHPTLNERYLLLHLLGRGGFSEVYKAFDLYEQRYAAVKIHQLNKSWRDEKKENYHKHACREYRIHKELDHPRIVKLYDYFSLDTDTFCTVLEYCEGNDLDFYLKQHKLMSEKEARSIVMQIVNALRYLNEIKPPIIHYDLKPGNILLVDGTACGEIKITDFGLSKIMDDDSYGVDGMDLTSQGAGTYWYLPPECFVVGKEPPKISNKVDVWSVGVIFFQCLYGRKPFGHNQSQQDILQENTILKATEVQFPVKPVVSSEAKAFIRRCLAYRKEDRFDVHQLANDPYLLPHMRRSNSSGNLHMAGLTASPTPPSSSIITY

Compound `COc1cc(C(=O)N2CCOCC2)c(F)cc1Nc1ncc(C(F)(F)F)c(NC2CC2)n1` has a residual activity (STK33 (human); compound 1.0 µM) of 47%, a residual activity (STK33 (human); compound 10.0 µM) of 30% and a residual activity (TTBK2 (human); compound 1.0 µM) of 91%. The residual activity (TTBK2 (human); compound 10.0 µM) was 97%, the residual activity (TESK1 (human); compound 1.0 µM) was 102% and the residual activity (TESK1 (human); compound 10.0 µM) was 118%. It also gave a residual activity (PDGFRA (human); compound 1.0 µM) of 81%, a residual activity (PDGFRA (human); compound 10.0 µM) of 76% and a residual activity (TLK1 (human); compound 1.0 µM) of 106%. It also gave a residual activity (TLK1 (human); compound 10.0 µM) of 96%, a residual activity (WNK1 (human); compound 1.0 µM) of 97% and a residual activity (WNK1 (human); compound 10.0 µM) of 106%. It also gave a residual activity ([1]; compound 1.0 µM) of 82%, a residual activity ([1]; compound 10.0 µM) of 44% and a residual activity (IRAK1 (human); compound 1.0 µM) of 98%. It also gave a residual activity (IRAK1 (human); compound 10.0 µM) of 94%, a residual activity (SIK2 (human); compound 1.0 µM) of 84% and a residual activity (SIK2 (human); compound 10.0 µM) of 34%. The residual activity (CDK9 CCNT1 (human); compound 1.0 µM) was 87%, the residual activity (CDK9 CCNT1 (human); compound 10.0 µM) was 90% and the residual activity (ULK2 (human); compound 1.0 µM) was 88%. For the same compound, the residual activity (ULK2 (human); compound 10.0 µM) was 70%, the residual activity (SIK3 (human); compound 1.0 µM) was 95% and the residual activity (SIK3 (human); compound 10.0 µM) was 93%. The residual activity (TEK (human); compound 1.0 µM) was 85%, the residual activity (TEK (human); compound 10.0 µM) was 91% and the residual activity (EIF2AK3 (human); compound 1.0 µM) was 87%. It also gave a residual activity (EIF2AK3 (human); compound 10.0 µM) of 82%, a residual activity (MAPK7 (human); compound 1.0 µM) of 66% and a residual activity (MAPK7 (human); compound 10.0 µM) of 42%. The residual activity ([2]; compound 1.0 µM) was 99%, the residual activity ([2]; compound 10.0 µM) was 103% and the residual activity (STK24 (human); compound 1.0 µM) was 96%. For the same compound, the residual activity (STK24 (human); compound 10.0 µM) was 85%, the residual activity (ULK1 (human); compound 1.0 µM) was 98% and the residual activity (ULK1 (human); compound 10.0 µM) was 56%. The residual activity (ABL1 (human); compound 1.0 µM) was 106%, the residual activity (ABL1 (human); compound 10.0 µM) was 97% and the residual activity (MAP2K6 (human); compound 1.0 µM) was 71%. It also gave a residual activity (MAP2K6 (human); compound 10.0 µM) of 31%, a residual activity (MAP4K5 (human); compound 1.0 µM) of 107% and a residual activity (MAP4K5 (human); compound 10.0 µM) of 91%. The residual activity (ZAP70 (human); compound 1.0 µM) was 88%, the residual activity (ZAP70 (human); compound 10.0 µM) was 86% and the residual activity (NUAK1 (human); compound 1.0 µM) was 41%. The residual activity (NUAK1 (human); compound 10.0 µM) was 9%, the residual activity (DDR2 (human); compound 1.0 µM) was 105% and the residual activity (DDR2 (human); compound 10.0 µM) was 100%. The residual activity (TTBK1 (human); compound 1.0 µM) was 96%, the residual activity (TTBK1 (human); compound 10.0 µM) was 93% and the residual activity (MAP4K3 (human); compound 1.0 µM) was 76%. For the same compound, the residual activity (MAP4K3 (human); compound 10.0 µM) was 36%, the residual activity (STK16 (human); compound 1.0 µM) was 115% and the residual activity (STK16 (human); compound 10.0 µM) was 101%. For the same compound, the residual activity (TSSK1B (human); compound 1.0 µM) was 31%, the residual activity (TSSK1B (human); compound 10.0 µM) was 7% and the residual activity ([3]; compound 1.0 µM) was 95%. It also gave a residual activity ([3]; compound 10.0 µM) of 51%, a residual activity (PTK6 (human); compound 1.0 µM) of 53% and a residual activity (PTK6 (human); compound 10.0 µM) of 22%. It also gave a residual activity (CSNK1G2 (human); compound 1.0 µM) of 90% and a residual activity (CSNK1G2 (human); compound 10.0 µM) of 89%.
